Test results taken from PubChem BioAssay (NCI).
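1) Cells in 96-well plates. 2) Compound, 48 h, 5 concentrations. 3) Linear interpolation between surrounding doses. 4) Unreached endpoint = highest concentration. GI50 is the concentration that inhibits growth by half. TGI marks complete inhibition of growth.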

Tests used:
Assay in all cases: NCI-60 cell line screen, 48 h
[1] = tested on: A549 NSCLC
[2] = tested on: CAKI-1 renal
[3] = tested on: CCRF-CEM leukemia
[4] = tested on: HOP-62 NSCLC
[5] = tested on: NCI-H226 lung
[6] = tested on: NCI-H460 lung
[7] = tested on: RXF 393 renal
[8] = tested on: SK-MEL-28 melanoma
[9] = tested on: SW-620 colon
[10] = tested on: UACC-62 melanoma

SMILES: CN[C@@H](C)C(=O)N[C@H](C(=O)N1CCC[C@H]1c1nc(C(=O)c2ccc(F)cc2)cs1)C1CCCCC1
- GI50 [1]: 35.2 µM
- TGI [1]: > 100 µM
- GI50 [2]: 34.9 µM
- TGI [2]: > 100 µM
- GI50 [3]: 20.5 µM
- TGI [3]: > 84.6 µM
- GI50 [4]: 20 µM
- TGI [4]: > 65 µM
- GI50 [5]: 31.2 µM
- TGI [5]: > 100 µM
- GI50 [6]: 27.8 µM
- TGI [6]: > 72.8 µM
- GI50 [7]: 1.94 µM
- TGI [7]: 16.3 µM
- GI50 [8]: 16.6 µM
- TGI [8]: 32 µM
- GI50 [9]: 27.4 µM
- TGI [9]: > 77.6 µM
- GI50 [10]: 16.6 µM
- TGI [10]: 35.2 µM

SMILES: CCCC(=O)Oc1ccc(/C(=C(\C)c2ccc(Cl)cc2)c2ccc(OCCN(CC)CC)cc2)cc1
- GI50 [1]: 2.58 µM
- TGI [1]: 6.91 µM
- GI50 [2]: 3.99 µM
- TGI [2]: 16.3 µM
- GI50 [3]: 4.18 µM
- TGI [3]: 15.5 µM
- GI50 [4]: 2.16 µM
- TGI [4]: 4.68 µM
- GI50 [5]: 8.8 µM
- TGI [5]: 25 µM
- GI50 [6]: 2.12 µM
- TGI [6]: 4.4 µM
- GI50 [7]: 1.72 µM
- TGI [7]: 3.55 µM
- GI50 [8]: 1.91 µM
- TGI [8]: 3.91 µM
- GI50 [9]: 1.99 µM
- TGI [9]: 4.35 µM
- GI50 [10]: 2.06 µM
- TGI [10]: 4.04 µM

SMILES: CN(C)S(=O)(=O)c1cccc(C(=O)Nc2nc(-c3ccc(F)c(F)c3)cs2)c1
- GI50 [1]: 13.2 µM
- TGI [1]: > 100 µM
- GI50 [2]: 10.9 µM
- TGI [2]: > 75.9 µM
- GI50 [3]: 10.7 µM
- TGI [3]: > 100 µM
- GI50 [4]: 12.7 µM
- TGI [4]: > 100 µM
- GI50 [5]: 9.32 µM
- TGI [5]: 98.3 µM
- GI50 [6]: 12.8 µM
- TGI [6]: > 100 µM
- GI50 [7]: 12.4 µM
- TGI [7]: > 81.5 µM
- GI50 [8]: 18.8 µM
- TGI [8]: > 100 µM
- GI50 [9]: 47.9 µM
- TGI [9]: > 100 µM
- GI50 [10]: 7.81 µM
- TGI [10]: > 100 µM

SMILES: O=C(n1c2ccccc2c2n[nH]c(=S)nc21)C(F)(F)F
- TGI [1]: > 100 µM
- TGI [2]: > 100 µM
- TGI [3]: > 100 µM
- TGI [4]: > 100 µM
- TGI [5]: > 100 µM
- TGI [6]: > 100 µM
- TGI [7]: > 100 µM
- TGI [8]: > 100 µM
- TGI [9]: > 100 µM
- TGI [10]: > 100 µM

SMILES: N#CC1=C(N)NC(=O)C(C#N)C12Nc1ccccc1S2 (stereo not given)
- GI50 [1]: > 100 µM
- TGI [1]: > 100 µM
- GI50 [2]: > 100 µM
- TGI [2]: > 100 µM
- GI50 [3]: > 100 µM
- TGI [3]: > 100 µM
- GI50 [4]: > 100 µM
- TGI [4]: > 100 µM
- GI50 [5]: 41.3 µM
- TGI [5]: > 100 µM
- GI50 [6]: > 100 µM
- TGI [6]: > 100 µM
- GI50 [7]: 20.4 µM
- TGI [7]: > 100 µM
- GI50 [8]: > 100 µM
- TGI [8]: > 100 µM
- GI50 [9]: > 100 µM
- TGI [9]: > 100 µM
- GI50 [10]: 60.5 µM
- TGI [10]: > 100 µM

SMILES: CC(=O)/C=C1\CC(=O)N(C)c2ccccc2N1
- TGI [1]: > 100 µM
- TGI [2]: > 100 µM
- TGI [3]: > 100 µM
- TGI [4]: > 100 µM
- TGI [5]: > 100 µM
- TGI [6]: > 100 µM
- TGI [7]: > 100 µM
- TGI [8]: > 100 µM
- TGI [9]: > 100 µM
- TGI [10]: > 100 µM

SMILES: CCN(Cc1cc(Cl)cc(C)c1O)Cc1c(O)ccc2ccccc12
- TGI [1]: 38 µM
- TGI [2]: 28.8 µM
- TGI [3]: 42.5 µM
- TGI [4]: 26.4 µM
- TGI [5]: 41 µM
- TGI [6]: 36 µM
- TGI [7]: 31.2 µM
- TGI [8]: 34.8 µM
- TGI [9]: 69.7 µM
- TGI [10]: 31.4 µM

SMILES: O=NNc1ccc(-c2ccccc2)cn1
- TGI [1]: > 92.3 µM
- TGI [2]: 43.8 µM
- TGI [3]: > 100 µM
- TGI [4]: 20.6 µM
- TGI [5]: > 64.6 µM
- TGI [6]: 42.9 µM
- TGI [7]: 12.7 µM
- TGI [8]: > 80.1 µM
- TGI [9]: > 77 µM
- TGI [10]: 31.3 µM

SMILES: Nc1c(C(=O)c2cccc(-c3cccnc3)c2)cnn1-c1ccc(F)cc1
- GI50 [1]: > 25 µM
- TGI [1]: > 25 µM
- GI50 [2]: > 25 µM
- TGI [2]: > 25 µM
- GI50 [3]: > 25 µM
- TGI [3]: > 25 µM
- GI50 [4]: > 17.3 µM
- TGI [4]: > 25 µM
- GI50 [5]: > 16.1 µM
- TGI [5]: > 25 µM
- GI50 [6]: > 25 µM
- TGI [6]: > 25 µM
- GI50 [7]: > 18.3 µM
- TGI [7]: > 25 µM
- GI50 [8]: > 25 µM
- TGI [8]: > 25 µM
- GI50 [9]: > 25 µM
- TGI [9]: > 25 µM
- GI50 [10]: > 25 µM
- TGI [10]: > 25 µM

SMILES: COc1ccc2nc3cc(Cl)ccc3c(Sc3ccc(N)cc3)c2c1
- TGI [1]: 30.1 µM
- TGI [2]: 29.6 µM
- TGI [3]: 18.7 µM
- TGI [4]: 49.8 µM
- TGI [5]: 34.3 µM
- TGI [6]: 21.1 µM
- TGI [7]: 24.7 µM
- TGI [8]: 29.6 µM
- TGI [9]: 12.8 µM
- TGI [10]: 17.8 µM

SMILES: COc1ccc(CCN2CCCn3c2nc2ccccc2c3=O)cc1
- GI50 [1]: 0.087 µM
- TGI [1]: > 100 µM
- GI50 [2]: 0.252 µM
- TGI [2]: > 100 µM
- GI50 [3]: 0.162 µM
- TGI [3]: > 100 µM
- GI50 [4]: 0.084 µM
- TGI [4]: > 61.8 µM
- GI50 [5]: 6.43 µM
- TGI [5]: > 100 µM
- GI50 [6]: 0.0512 µM
- TGI [6]: > 100 µM
- GI50 [7]: 0.2 µM
- TGI [7]: 35.8 µM
- GI50 [8]: 2.42 µM
- TGI [8]: > 100 µM
- GI50 [9]: 0.0508 µM
- TGI [9]: > 100 µM
- GI50 [10]: 0.185 µM
- TGI [10]: > 100 µM

SMILES: COc1ccc2c(=O)c(-c3cc(OC)c(OC)cc3OC)coc2c1
- TGI [1]: > 100 µM
- TGI [2]: > 100 µM
- TGI [3]: > 100 µM
- TGI [4]: > 100 µM
- TGI [5]: > 100 µM
- TGI [6]: > 100 µM
- TGI [7]: 24.2 µM
- TGI [8]: > 100 µM
- TGI [9]: > 100 µM
- TGI [10]: > 100 µM
